Data published in US20210130346A1, “Bromodomain Inhibitors” (AbbVie Inc., priority 2017, published 2021).

target: BRD4 (BDI_K57-E168) (Homo sapiens, UniProt O60885); test: TR-FRET bromodomain binding assay, BRD4 first bromodomain (BDI); details: mean Ki; 12 nM His tagged BRD4 (BDI_K57-E168), 100 nM Alexa647 probe; Ki calculated from IC50, probe Kd and probe concentration
Method: A time-resolved fluorescence resonance energy transfer (TR-FRET) assay was used to determine the affinities of compounds of the Examples listed in Table 1 for each bromodomain of BRD4. […] An Alexa647-labeled BET-inhibitor was used as the fluorescent probe in the assay.
Compound dilution series were prepared in DMSO via an approximately 3-fold serial dilution. Compound dilutions were added directly into white, low-volume assay plates (Perkin Elmer Proxiplate 384 Plus# 6008280) using a Labcyte Echo in conjunction with Labcyte Access and Thermo Multidrop CombinL robotics. Compounds were then suspended in eight microliters (μL) of assay buffer (20 mM Sodium Phosphate, pH 6.0, 50 mM NaCl, 1 mM Ethylenediaminetetraacetic acid disodium salt dihydrate, 0.01% Triton X-100, 1 mM DL-Dithiothreitol) containing His-tagged bromodomain, Europium-conjugated anti-His antibody (Invitrogen PV5596) and Alexa-647-conjugated probe.
After a one-hour equilibration at room temperature, TR-FRET ratios were determined using an Envision multilabel plate reader (Ex 340, Em 495/520).
TR-FRET data were normalized to the means of 24 no-compound controls (“high”) and 8 controls containing 1 μM un-labeled probe (“low”). Percent inhibition was plotted as a function of compound concentration and the data were fit with the 4 parameter logistic equation to obtain IC50s. Inhibition constants (Ki) were calculated from the IC50s, probe Kd and probe concentration.

Ki | Structure (SMILES)
6.08 µM | CCNC(=O)c1cc2c([C@@H]3C[C@@]34C(=O)N(C)c3ccccc34)cn(C)c(=O)c2[nH]1 (racemic) [Example 1, rac-N-ethyl-6-methyl-4-[(1R,2S)-1′-methyl-2′-oxo-1′,2′-dihydrospiro[cyclopropane-1,3′-indol]-2-yl]-7-oxo-6,7-dihydro-1H-pyrrolo[2,3-c]pyridine-2-carboxamide]
5.42 µM | CN1C(=O)[C@@]2(C[C@H]2c2cn(C)c(=O)c3[nH]c(C(=O)NC4CC4)cc23)c2ccccc21 (racemic) [Example 2, rac-N-cyclopropyl-6-methyl-4-[(1R,2S)-1′-methyl-2′-oxo-1′,2′-dihydrospiro[cyclopropane-1,3′-indol]-2-yl]-7-oxo-6,7-dihydro-1H-pyrrolo[2,3-c]pyridine-2-carboxamide]
5.45 µM | CN1C(=O)[C@@]2(C[C@H]2c2cn(C)c(=O)c3[nH]c(C(=O)NC4CC(F)(F)C4)cc23)c2ccccc21 (racemic) [Example 5, rac-N-(3,3-difluorocyclobutyl)-6-methyl-4-[(1R,2S)-1′-methyl-2′-oxo-1′,2′-dihydrospiro[cyclopropane-1,3′-indol]-2-yl]-7-oxo-6,7-dihydro-1H-pyrrolo[2,3-c]pyridine-2-carboxamide]
> 13 µM | CN1C(=O)[C@@]2(C[C@H]2c2cn(C)c(=O)c3[nH]c(C(=O)Nc4ccccc4)cc23)c2ccccc21 (racemic) [Example 8, rac-6-methyl-4-[(1R,2S)-1′-methyl-2′-oxo-1′,2′-dihydrospiro[cyclopropane-1,3′-indol]-2-yl]-7-oxo-N-phenyl-6,7-dihydro-1H-pyrrolo[2,3-c]pyridine-2-carboxamide]
4.68 µM | COc1ccc(NC(=O)c2cc3c([C@@H]4C[C@@]45C(=O)N(C)c4ccccc45)cn(C)c(=O)c3[nH]2)cc1 (racemic) [Example 9, rac-N-(4-methoxyphenyl)-6-methyl-4-[(1R,2S)-1′-methyl-2′-oxo-1′,2′-dihydrospiro[cyclopropane-1,3′-indol]-2-yl]-7-oxo-6,7-dihydro-1H-pyrrolo[2,3-c]pyridine-2-carboxamide]
2.05 µM | CN1C(=O)[C@@]2(C[C@H]2c2cn(C)c(=O)c3[nH]c(C(=O)Nc4cccc(CO)c4)cc23)c2ccccc21 (racemic) [Example 10, rac-N-[3-(hydroxymethyl)phenyl]-6-methyl-4-[(1R,2S)-1′-methyl-2′-oxo-1′,2′-dihydrospiro[cyclopropane-1,3′-indol]-2-yl]-7-oxo-6,7-dihydro-1H-pyrrolo[2,3-c]pyridine-2-carboxamide]
7.38 µM | CN1C(=O)[C@@]2(C[C@H]2c2cn(C)c(=O)c3[nH]c(C(=O)NC4CC4)cc23)c2ccc(F)cc21 (racemic) [Example 11, rac-N-cyclopropyl-4-[(1R,2S)-6′-fluoro-1′-methyl-2′-oxo-1′,2′-dihydrospiro[cyclopropane-1,3′-indol]-2-yl]-6-methyl-7-oxo-6,7-dihydro-1H-pyrrolo[2,3-c]pyridine-2-carboxamide]
4.53 µM | CN1C(=O)[C@@]2(C[C@H]2c2cn(C)c(=O)c3[nH]c(C(=O)NC4CC4)cc23)c2ccc(Cl)cc21 (racemic) [Example 12, rac-4-[(1R,2S)-6′-chloro-1′-methyl-2′-oxo-1′,2′-dihydrospiro[cyclopropane-1,3′-indol]-2-yl]-N-cyclopropyl-6-methyl-7-oxo-6,7-dihydro-1H-pyrrolo[2,3-c]pyridine-2-carboxamide]
2.95 µM | Cc1ccc2c(c1)N(C)C(=O)[C@@]21C[C@H]1c1cn(C)c(=O)c2[nH]c(C(=O)NC3CC3)cc12 (racemic) [Example 13, rac-N-cyclopropyl-4-[(1R,2S)-1′,6′-dimethyl-2′-oxo-1′,2′-dihydrospiro[cyclopropane-1,3′-indol]-2-yl]-6-methyl-7-oxo-6,7-dihydro-1H-pyrrolo[2,3-c]pyridine-2-carboxamide]
4.8 µM | COc1ccc2c(c1)N(C)C(=O)[C@@]21C[C@H]1c1cn(C)c(=O)c2[nH]c(C(=O)NC3CC3)cc12 (racemic) [Example 14, rac-N-cyclopropyl-4-[(1R,2S)-6′-methoxy-1′-methyl-2′-oxo-1′,2′-dihydrospiro[cyclopropane-1,3′-indol]-2-yl]-6-methyl-7-oxo-6,7-dihydro-1H-pyrrolo[2,3-c]pyridine-2-carboxamide]
3.63 µM | CN1C(=O)[C@@]2(C[C@H]2c2cn(C)c(=O)c3[nH]c(C(=O)NC4CC4)cc23)c2ccc(OC(F)(F)F)cc21 (racemic) [Example 15, rac-N-cyclopropyl-6-methyl-4-[(1R,2S)-1′-methyl-2′-oxo-6′-(trifluoromethoxy)-1′,2′-dihydrospiro[cyclopropane-1,3′-indol]-2-yl]-7-oxo-6,7-dihydro-1H-pyrrolo[2,3-c]pyridine-2-carboxamide]
9.95 µM | CN1C(=O)[C@@]2(C[C@H]2c2cn(C)c(=O)c3[nH]c(C(=O)NC4CC4)cc23)c2cc(F)ccc21 (racemic) [Example 16, rac-N-cyclopropyl-4-[(1R,2S)-5′-fluoro-1′-methyl-2′-oxo-1′,2′-dihydrospiro[cyclopropane-1,3′-indol]-2-yl]-6-methyl-7-oxo-6,7-dihydro-1H-pyrrolo[2,3-c]pyridine-2-carboxamide]
> 13 µM | Cn1cc([C@@H]2C[C@@]23C(=O)Nc2ccccc23)c2cc(C(=O)NC3CC3)[nH]c2c1=O (racemic) [Example 19, rac-N-cyclopropyl-6-methyl-7-oxo-4-[(1R,2S)-2′-oxo-1′,2′-dihydrospiro[cyclopropane-1,3′-indol]-2-yl]-6,7-dihydro-1H-pyrrolo[2,3-c]pyridine-2-carboxamide]
4 µM | CCN1C(=O)[C@@]2(C[C@H]2c2cn(C)c(=O)c3[nH]c(C(=O)NC4CC4)cc23)c2ccccc21 (racemic) [Example 22, rac-N-cyclopropyl-4-[(1R,2S)-1′-ethyl-2′-oxo-1′,2′-dihydrospiro[cyclopropane-1,3′-indol]-2-yl]-6-methyl-7-oxo-6,7-dihydro-1H-pyrrolo[2,3-c]pyridine-2-carboxamide]
> 13 µM | Cn1cc(C2CC23C(=O)N(CC(F)(F)F)c2ccccc23)c2cc(C(=O)NC3CC3)[nH]c2c1=O (racemic) [Example 23, rac-N-cyclopropyl-6-methyl-7-oxo-4-[(1R,2S)-2′-oxo-′-(2,2,2-trifluoroethyl)-1′,2′-dihydrospiro[cyclopropane-1,3′-indol]-2-yl]-6,7-dihydro-1H-pyrrolo[2,3-c]pyridine-2-carboxamide]
9.22 µM | Cn1cc([C@@H]2C[C@@]23C(=O)N(C2CC2)c2ccccc23)c2cc(C(=O)NC3CC3)[nH]c2c1=O (racemic) [Example 26, rac-N-cyclopropyl-4-[(1R,2S)-1′-cyclopropyl-2′-oxo-1′,2′-dihydrospiro[cyclopropane-1,3′-indol]-2-yl]-6-methyl-7-oxo-6,7-dihydro-1H-pyrrolo[2,3-c]pyridine-2-carboxamide]
> 13 µM | COCCN1C(=O)[C@@]2(C[C@H]2c2cn(C)c(=O)c3[nH]c(C(=O)NC4CC4)cc23)c2ccccc21 (racemic) [Example 27, rac-N-cyclopropyl-4-[(1R,2S)-1′-(2-methoxyethyl)-2′-oxo-1′,2′-dihydrospiro[cyclopropane-1,3′-indol]-2-yl]-6-methyl-7-oxo-6,7-dihydro-1H-pyrrolo[2,3-c]pyridine-2-carboxamide]
7.43 µM | Cn1cc([C@@H]2C[C@@]23C(=O)N(Cc2ccc(N)cc2)c2ccccc23)c2cc(C(=O)NC3CC3)[nH]c2c1=O (racemic) [Example 28, rac-4-{(1R,2S)-1′-[(4-aminophenyl)methyl]-2′oxo-1′,2′-dihydrospiro[cyclopropane-1,3′-indol]-2-yl}-N-cyclopropyl-6-methyl-7-oxo-6,7-dihydro-1H-pyrrolo [2,3-c]pyridine-2-carboxamide]
4.84 µM | CN1C(=O)[C@@]2(C[C@H]2c2cn(C)c(=O)c3[nH]c(C(=O)NC4CC4)cc23)c2cccc(Br)c21 (racemic) [Example 29, rac-4-[(1R,2S)-7′-bromo-1′-methyl-2′-oxo-1′,2′-dihydrospiro[cyclopropane-1,3′-indol]-2-yl]-N-cyclopropyl-6-methyl-7-oxo-6,7-dihydro-1H-pyrrolo[2,3-c]pyridine-2-carboxamide]
3.44 µM | CN1C(=O)[C@@]2(C[C@H]2c2cn(C)c(=O)c3[nH]ccc23)c2ccccc21 (racemic) [Example 30, rac-(1R,2S)-1′-methyl-2-(6-methyl-7-oxo-6,7-dihydro-1H-pyrrolo[2,3-c]pyridin-4-yl)spiro[cyclopropane-1,3′-indol]-2′(1H)-one]
0.811 µM | CN1C(=O)[C@@]2(C[C@H]2c2cn(C)c(=O)c3[nH]c(C4CC4)cc23)c2ccccc21 (racemic) [Example 31, rac-(1R,2S)-2-(2-cyclopropyl-6-methyl-7-oxo-6,7-dihydro-1H-pyrrolo[2,3-c]pyridin-4-yl)-1′-methylspiro[cyclopropane-1,3′-indol]-2′(1H)-one]
2.41 µM | CN1C(=O)[C@@]2(C[C@H]2c2cn(C)c(=O)c3[nH]c(C4CN(C(=O)OC(C)(C)C)C4)cc23)c2ccccc21 (racemic) [Example 32, rac-tert-butyl 3-{6-methyl-4-[(1R,2S)-1′-methyl-2′oxo-1′,2′-dihydrospiro[cyclopropane-1,3′-indol]-2-yl]-7-oxo-6,7-dihydro-1H-pyrrolo [2,3-c]pyridin-2-yl}azetidine-1-carboxylate]
